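In this assay, cells in 96-well plates receive the compound at five concentrations for 48 hours. Endpoints are linearly interpolated between the surrounding concentrations. Here, GI50 denotes the concentration required for 50% inhibition of growth. At the TGI there is no net growth.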
Experiments:
Experiment in all cases: NCI tumour cell line growth inhibition, 48 h
[1] = test system: NCI-H522 lung
[2] = test system: MCF7 breast
[3] = test system: SF-295 CNS
[4] = test system: MDA-MB-468 breast
[5] = test system: KM12 colon
[6] = test system: SN12C renal
[7] = test system: SF-268 CNS
[8] = test system: HCT-116 colon
[9] = test system: MOLT-4 leukemia
[10] = test system: CAKI-1 renal
[11] = test system: UACC-62 melanoma
[12] = test system: SK-MEL-2 melanoma
[13] = test system: SF-539 CNS
[14] = test system: SW-620 colon
[15] = test system: HS 578T breast
[16] = test system: SNB-19 CNS
[17] = test system: ACHN renal
[18] = test system: MDA-MB-231 breast
[19] = test system: MALME-3M melanoma
[20] = test system: SK-OV-3 ovarian
[21] = test system: T-47D breast
[22] = test system: NCI/ADR-RES ovarian
[23] = test system: A549 NSCLC
[24] = test system: RPMI-8226 leukemia
[25] = test system: BT-549 breast
[26] = test system: MDA-MB-435
[27] = test system: HT29 colon
[28] = test system: NCI-H460 lung
[29] = test system: NCI-H226 lung
[30] = test system: HCT-15 colon
[31] = test system: EKVX NSCLC
[32] = test system: HL-60(TB) leukemia
[33] = test system: K-562 leukemia
[34] = test system: OVCAR-4 ovarian
[35] = test system: 786-0 renal
[36] = test system: CCRF-CEM leukemia
[37] = test system: SNB-75 CNS
[38] = test system: SR leukemia
[39] = test system: OVCAR-3 ovarian
[40] = test system: M14 melanoma
[41] = test system: SK-MEL-28 melanoma
[42] = test system: UACC-257 melanoma
[43] = test system: U251 CNS
[44] = test system: OVCAR-5 ovarian
[45] = test system: HCC-2998 colon
[46] = test system: TK-10 renal
[47] = test system: HOP-62 NSCLC
[48] = test system: COLO 205 colon
[49] = test system: UO-31 renal
[50] = test system: RXF 393 renal
[51] = test system: SK-MEL-5 melanoma
[52] = test system: IGROV1 ovarian
[53] = test system: OVCAR-8 ovarian
[54] = test system: A498 renal
[55] = test system: HOP-92 NSCLC
[56] = test system: NCI-H23 lung
[57] = test system: LOX IMVI melanoma
[58] = test system: PC-3 prostate
[59] = test system: DU-145 prostate

Question: `O=C(Nc1ccc(-c2ccc3c(c2)NC(=O)/C3=C\c2ccc[nH]2)cc1)Nc1ccc(Cl)c(C(F)(F)F)c1` was tested. Which GI50 [1] did it give?
Answer: 1.54 µM

Question: And the TGI [1]?
Answer: 3.67 µM

Question: What about the GI50 [2] of the same compound?
Answer: 0.18 µM

Question: What about the TGI [2] of the same compound?
Answer: 1.63 µM

Question: And the GI50 [3]?
Answer: 2.84 µM

Question: What about the TGI [3] of the same compound?
Answer: 10.2 µM

Question: What about the GI50 [4] of the same compound?
Answer: 0.033 µM

Question: What about the TGI [4] of the same compound?
Answer: 0.322 µM

Question: And the GI50 [5]?
Answer: 2.24 µM

Question: What about the TGI [5] of the same compound?
Answer: 10.6 µM

Question: What about the GI50 [6] of the same compound?
Answer: 1.71 µM

Question: What about the TGI [6] of the same compound?
Answer: 3.53 µM

Question: And the GI50 [7]?
Answer: 1.94 µM

Question: What about the TGI [7] of the same compound?
Answer: 5.09 µM

Question: What about the GI50 [8] of the same compound?
Answer: 1.78 µM

Question: What about the TGI [8] of the same compound?
Answer: 3.46 µM

Question: What about the GI50 [9] of the same compound?
Answer: 2.48 µM

Question: What about the TGI [9] of the same compound?
Answer: 11.4 µM

Question: What about the GI50 [10] of the same compound?
Answer: 2.92 µM

Question: What about the TGI [10] of the same compound?
Answer: 12.9 µM

Question: And the GI50 [11]?
Answer: 2.62 µM

Question: What about the TGI [11] of the same compound?
Answer: 12.9 µM

Question: And the GI50 [12]?
Answer: 3.48 µM

Question: And the TGI [12]?
Answer: 14.2 µM

Question: And the GI50 [13]?
Answer: 1.82 µM

Question: What about the TGI [13] of the same compound?
Answer: 6.59 µM

Question: What about the GI50 [14] of the same compound?
Answer: 1.88 µM

Question: And the TGI [14]?
Answer: 3.89 µM

Question: What about the GI50 [15] of the same compound?
Answer: 2.64 µM

Question: What about the TGI [15] of the same compound?
Answer: 16.1 µM

Question: And the GI50 [16]?
Answer: 3.6 µM

Question: What about the TGI [16] of the same compound?
Answer: 15.5 µM

Question: And the GI50 [17]?
Answer: 3 µM

Question: What about the TGI [17] of the same compound?
Answer: 9.6 µM

Question: And the GI50 [18]?
Answer: 2.23 µM

Question: And the TGI [18]?
Answer: 10.1 µM

Question: What about the GI50 [19] of the same compound?
Answer: 3.78 µM

Question: And the TGI [19]?
Answer: 16.4 µM

Question: And the GI50 [20]?
Answer: 2.56 µM

Question: What about the TGI [20] of the same compound?
Answer: 13.9 µM

Question: What about the GI50 [21] of the same compound?
Answer: 0.29 µM

Question: What about the TGI [21] of the same compound?
Answer: 4.12 µM

Question: And the GI50 [22]?
Answer: 2.93 µM

Question: And the TGI [22]?
Answer: 11.1 µM

Question: And the GI50 [23]?
Answer: 1.56 µM

Question: What about the TGI [23] of the same compound?
Answer: 3.56 µM

Question: And the GI50 [24]?
Answer: 1.56 µM

Question: And the TGI [24]?
Answer: 4.98 µM

Question: And the GI50 [25]?
Answer: 2.05 µM

Question: And the TGI [25]?
Answer: 6.15 µM

Question: What about the GI50 [26] of the same compound?
Answer: 2 µM

Question: And the TGI [26]?
Answer: 4.67 µM

Question: And the GI50 [27]?
Answer: 2.56 µM

Question: What about the TGI [27] of the same compound?
Answer: 7.71 µM

Question: And the GI50 [28]?
Answer: 0.489 µM

Question: And the TGI [28]?
Answer: 1.82 µM

Question: What about the GI50 [29] of the same compound?
Answer: 1.33 µM

Question: What about the TGI [29] of the same compound?
Answer: 11.4 µM

Question: And the GI50 [30]?
Answer: 1.6 µM

Question: What about the TGI [30] of the same compound?
Answer: 4.04 µM

Question: What about the GI50 [31] of the same compound?
Answer: 0.243 µM

Question: What about the TGI [31] of the same compound?
Answer: 6.38 µM

Question: And the GI50 [32]?
Answer: 3.27 µM

Question: And the TGI [32]?
Answer: 15 µM

Question: What about the GI50 [33] of the same compound?
Answer: 2.54 µM

Question: What about the TGI [33] of the same compound?
Answer: 11.3 µM

Question: What about the GI50 [34] of the same compound?
Answer: 1.24 µM

Question: What about the TGI [34] of the same compound?
Answer: 8.4 µM

Question: What about the GI50 [35] of the same compound?
Answer: 3.09 µM

Question: What about the TGI [35] of the same compound?
Answer: 10.2 µM

Question: And the GI50 [36]?
Answer: 2.57 µM

Question: What about the TGI [36] of the same compound?
Answer: 9.6 µM

Question: And the GI50 [37]?
Answer: 2.64 µM

Question: What about the TGI [37] of the same compound?
Answer: 17.4 µM

Question: And the GI50 [38]?
Answer: 2.13 µM

Question: What about the TGI [38] of the same compound?
Answer: 7.01 µM

Question: What about the GI50 [39] of the same compound?
Answer: 1.57 µM

Question: What about the TGI [39] of the same compound?
Answer: 3.62 µM

Question: And the GI50 [40]?
Answer: 3.47 µM

Question: And the TGI [40]?
Answer: 14.4 µM

Question: And the GI50 [41]?
Answer: 3.04 µM

Question: What about the TGI [41] of the same compound?
Answer: 10.2 µM

Question: And the GI50 [42]?
Answer: 2.77 µM

Question: What about the TGI [42] of the same compound?
Answer: 9.01 µM

Question: What about the GI50 [43] of the same compound?
Answer: 1.64 µM

Question: And the TGI [43]?
Answer: 3.42 µM

Question: And the GI50 [44]?
Answer: 2.18 µM

Question: What about the TGI [44] of the same compound?
Answer: 10.5 µM

Question: And the GI50 [45]?
Answer: 2.18 µM

Question: What about the TGI [45] of the same compound?
Answer: 6.15 µM

Question: And the GI50 [46]?
Answer: 1.43 µM

Question: And the TGI [46]?
Answer: 7.55 µM

Question: What about the GI50 [47] of the same compound?
Answer: 2.09 µM

Question: And the TGI [47]?
Answer: 8.75 µM

Question: What about the GI50 [48] of the same compound?
Answer: 2.82 µM

Question: What about the TGI [48] of the same compound?
Answer: 10.9 µM

Question: And the GI50 [49]?
Answer: 1.75 µM

Question: What about the TGI [49] of the same compound?
Answer: 14.3 µM

Question: And the GI50 [50]?
Answer: 2.25 µM

Question: What about the TGI [50] of the same compound?
Answer: 5.34 µM

Question: And the GI50 [51]?
Answer: 5.56 µM

Question: What about the TGI [51] of the same compound?
Answer: 18.8 µM

Question: And the GI50 [52]?
Answer: 4.05 µM

Question: And the TGI [52]?
Answer: 17.4 µM

Question: And the GI50 [53]?
Answer: 2.17 µM

Question: What about the TGI [53] of the same compound?
Answer: 5.38 µM

Question: What about the GI50 [54] of the same compound?
Answer: 2.35 µM

Question: And the TGI [54]?
Answer: 9.4 µM

Question: And the GI50 [55]?
Answer: 1.23 µM

Question: What about the TGI [55] of the same compound?
Answer: 4.69 µM

Question: What about the GI50 [56] of the same compound?
Answer: 1.12 µM

Question: What about the TGI [56] of the same compound?
Answer: 3.12 µM

Question: And the GI50 [57]?
Answer: 1.73 µM

Question: What about the TGI [57] of the same compound?
Answer: 3.33 µM

Question: What about the GI50 [58] of the same compound?
Answer: 1.83 µM

Question: And the TGI [58]?
Answer: 6.69 µM

Question: What about the GI50 [59] of the same compound?
Answer: 2.13 µM

Question: What about the TGI [59] of the same compound?
Answer: 4.99 µM
